How the values were obtained:
[1] = In vitro cytotoxicity assay (MTT cell viability) in HepG2 cells; format: cell-based, human; conditions: human
Procedure, shortened: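 Read-out: MTT formazan absorbance at 492 nm, expressed as % of vehicle signal; CC50 by 4-parameter non-linear regression. Parental HepG2, 20,000 cells/well, treated 7 days with compound from 30 μM down to 1.0 nM.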

[2] = system: HBV replication in HepAD38 cells; assay: Anti-HBV replication assay in HepAD38 cells (QPCR of extracellular HBV DNA); format: cell-based, HBV (genotype D, serotype ayw); conditions: Hepatitis B virus, 168 h, 7 days incubation, extracellular HBV DNA by QPCR, read-out: Anti-HBV EC50
Procedure, shortened: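 HepAD38 cells (HepG2 carrying a tet-repressible HBV genotype D genome) were seeded in tetracycline-free medium and treated next day with compound […] for 7 days. Supernatant HBV DNA was measured by QPCR against a standard curve; EC50 came from 4-parameter fits of inhibition versus DMSO control.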

CO[C@H]1CC[C@@H](NC(=O)C(=O)c2c(C)c(C(=O)Nc3ccc(F)c(C)c3)c(C)n2C)CC1 [Example 268, N-(4-fluoro-3-methylphenyl)-5-(2-(((1s,4s)-4-methoxycyclohexyl)amino)-2-oxoacetyl)-1,2,4-trimethyl-1H-pyrrole-3-carboxamide]
CC50 at 7 days [1]: 5000 to 30000 nM
EC50 [2]: < 50 nM

Cc1cc(NC(=O)c2c(C)c(C(=O)C(=O)N[C@H]3COC[C@@H]3O)n(C)c2C)ccc1F [Example 128, N-(4-fluoro-3-methylphenyl)-5-(2-(((3S,4R)-4-hydroxytetrahydrofuran-3-yl)amino)-2-oxoacetyl)-1,2,4-trimethyl-1H-pyrrole-3-carboxamide]
CC50 at 7 days [1]: > 30000 nM
EC50 [2]: < 50 nM

Cc1cc(NC(=O)c2c(C)c(C(=O)C(=O)N[C@H]3CC[C@@](O)(C(F)(F)F)CC3)n(C)c2C)ccc1F [Example 207, N-(4-fluoro-3-methylphenyl)-5-(2-(((1r,4r)-4-hydroxy-4-(trifluoromethyl)cyclohexyl)amino)-2-oxoacetyl)-1,2,4-trimethyl-1H-pyrrole-3-carboxamide]
CC50 at 7 days [1]: > 30000 nM
EC50 [2]: < 50 nM

Cc1nc2c(s1)C(NC(=O)C(=O)c1c(C)c(C(=O)Nc3cnc(F)c(C)c3)c(C)n1C)CCC2 (stereo not shown) [Example 606, N-(6-fluoro-5-methylpyridin-3-yl)-1,2,4-trimethyl-5-(2-((2-methyl-4,5,6,7-tetrahydrobenzo[d]thiazol-7-yl)amino)-2-oxoacetyl)-1H-pyrrole-3-carboxamide]
CC50 at 7 days [1]: > 30000 nM
EC50 [2]: < 50 nM

CC(C)(CO)NC(=O)C(=O)c1cc(C(=O)Nc2ccc(F)c(F)c2)c2n1CCCC2 [Example 426, N-(3,4-difluorophenyl)-3-(2-((1-hydroxy-2-methylpropan-2-yl)amino)-2-oxoacetyl)-5,6,7,8-tetrahydroindolizine-1-carboxamide]
CC50 at 7 days [1]: > 30000 nM
EC50 [2]: 50 to 499 nM

Cc1noc([C@H](C)NC(=O)C(=O)c2c(Cl)c(C(=O)Nc3ccc(F)c(F)c3)c3n2CCCC3)n1 [Example 516, (S)-2-chloro-N-(3,4-difluorophenyl)-3-(2-((1-(3-methyl-1,2,4-oxadiazol-5-yl)ethyl)amino)-2-oxoacetyl)-5,6,7,8-tetrahydroindolizine--1 carboxamide]
CC50 at 7 days [1]: > 30000 nM
EC50 [2]: 50 to 499 nM

Cc1c(C(=O)Nc2ccc(F)c(Cl)c2)c(C)n(C)c1C(=O)C(=O)NC(C)(C)CO [Example 189, N-(3-chloro-4-fluorophenyl)-5-(2-((1-hydroxy-2-methylpropan-2-yl)amino)-2-oxoacetyl)-1,2,4-trimethyl-1H-pyrrole-3-carboxamide]
CC50 at 7 days [1]: > 30000 nM
EC50 [2]: < 50 nM

Cc1noc([C@@H](NC(=O)C(=O)c2c(Cl)c(C(=O)Nc3ccc(F)c(C)c3)c3n2CCCC3)C(C)C)n1 [Example 493, (S)-2-chloro-N-(4-fluoro-3-methylphenyl)-3-(2-((2-methyl-1-(3-methyl-1,2,4-oxadiazol-5-yl)propyl)amino)-2-oxoacetyl)-5,6,7,8-tetrahydroindolizine-1-carboxamide]
CC50 at 7 days [1]: 5000 to 30000 nM
EC50 [2]: < 50 nM

CCn1c(C)c(C(=O)Nc2ccc(F)c(C)c2)c(C)c1C(=O)C(=O)N[C@]1(C)CC[C@@H](O)CC1 [Example 696]
CC50 at 7 days [1]: > 30000 nM
EC50 [2]: < 50 nM

Cc1cc(NC(=O)c2c(C)c(C(=O)C(=O)Nc3ccccn3)n(C)c2C)ccc1F [Example 276, N-(4-fluoro-3-methylphenyl)-1,2,4-trimethyl-5-(2-oxo-2-(pyridin-2-ylamino)acetyl)-1H-pyrrole-3-carboxamide]
CC50 at 7 days [1]: > 30000 nM
EC50 [2]: < 50 nM

Cc1c(C(=O)Nc2ccc(F)c(F)c2)c(C)n(C)c1C(=O)C(=O)Nc1ccc(F)c(F)c1 [Example 293, N-(3,4-difluorophenyl)-5-(2-((3,4-difluorophenyl)amino)-2-oxoacetyl)-1,2,4-trimethyl-1H-pyrrole-3-carboxamide]
CC50 at 7 days [1]: 5000 to 30000 nM
EC50 [2]: < 50 nM

CC[C@@H](CO)NC(=O)C(=O)c1c(OC)c(C(=O)Nc2ccc(F)c(F)c2)c(C)n1C [Example 385, (S)-N-(3,4-difluorophenyl)-5-(2-((1-hydroxybutan-2-yl)amino)-2-oxoacetyl)-4-methoxy-1,2-dimethyl-1H-pyrrole-3-carboxamide]
CC50 at 7 days [1]: > 30000 nM
EC50 [2]: > 1000 nM

Cc1cc(NC(=O)c2c(C)c(C(=O)C(=O)NC(C)(C)CN3CCN(C)CC3)n(C)c2C)ccc1F [Example 651, N-(4-fluoro-3-methylphenyl)-1,2,4-trimethyl-5-(2-((2-methyl-1-(4-methylpiperazin-1-yl)propan-2-yl)amino)-2-oxoacetyl)-1H-pyrrole-3-carboxamide]
CC50 at 7 days [1]: > 30000 nM
EC50 [2]: < 50 nM

Cc1c(C(=O)Nc2ccnc(Cl)c2)c(C)n(C)c1C(=O)C(=O)NC1(C)CCOCC1 [Example 326, N-(2-chloropyridin-4-yl)-1,2,4-trimethyl-5-(2-((4-methyltetrahydro-2H-pyran-4-yl)amino)-2-oxoacetyl)-1H-pyrrole-3-carboxamide]
CC50 at 7 days [1]: > 30000 nM
EC50 [2]: < 50 nM

Cc1noc(C2(NC(=O)C(=O)c3c(C)c(C(=O)Nc4cnc(F)c(C)c4)c(C)n3C)CC2)n1 [Example 160, N-(6-fluoro-5-methylpyridin-3-yl)-1,2,4-trimethyl-5-(2-((1-(3-methyl-1,2,4-oxadiazol-5-yl)cyclopropyl)amino)-2-oxoacetyl)-1H-pyrrole-3-carboxamide]
CC50 at 7 days [1]: > 30000 nM
EC50 [2]: 50 to 499 nM

Cc1cc(NC(=O)c2c(C)c(C(=O)C(=O)N[C@]3(C(F)(F)F)CC[C@H](O)CC3)n(C)c2C)ccc1F [Example 282, N-(4-fluoro-3-methylphenyl)-5-(2-(((1s,4s)-4-hydroxy-1-(trifluoromethyl)cyclohexyl)amino)-2-oxoacetyl)-1,2,4-trimethyl-1H-pyrrole-3-carboxamide]
CC50 at 7 days [1]: > 30000 nM
EC50 [2]: < 50 nM

Cc1c(C(=O)Nc2ccc(F)c(F)c2)c2n(c1C(=O)C(=O)NC1(c3nn[nH]n3)CCCC1)CCCC2 [Example 743, 3-(22-((1-(2H-tetrazol-5-yl)cyclopentyl)amino)-2-oxoacetyl)-N-(3,4-difluorophenyl)-2-methyl-5,6,7,8-tetrahydroindolizine-1-carboxamide]
CC50 at 7 days [1]: > 30000 nM
EC50 [2]: 50 to 499 nM

CC(C)(O)CNC(=O)C(=O)c1c(Cl)c(C(=O)Nc2ccc(F)c(F)c2)c2n1CCC2 [Example 560, 6-chloro-N-(3,4-difluorophenyl)-5-(2-((2-hydroxy-2-methylpropyl)amino)-2-oxoacetyl)-2,3-dihydro-1H-pyrrolizine-7-carboxamide]
CC50 at 7 days [1]: > 30000 nM
EC50 [2]: < 50 nM

Cc1cc(NC(=O)c2c(C)c(C(=O)C(=O)NC3(CO)CC(F)(F)C3)n3c2CCCC3)ccc1F [Example 441, 3-(2-((3,3-difluoro-1-(hydroxymethyl)cyclobutyl)amino)-2-oxoacetyl)-N-(4-fluoro-3-methylphenyl)-2-methyl-5,6,7,8-tetrahydroindolizine-1-carboxamide]
CC50 at 7 days [1]: 5000 to 30000 nM
EC50 [2]: < 50 nM

Cc1cc(NC(=O)c2c(C)c(C(=O)C(=O)NC3(C(N)=O)CCCC3)n(C)c2C)ccc1F [Example 38, 5-(2-((1-carbamoylcyclopentyl)amino)-2-oxoacetyl)-N-(4-fluoro-3-methylphenyl)-1,2,4-trimethyl-1H-pyrrole-3-carboxamide]
CC50 at 7 days [1]: > 30000 nM
EC50 [2]: < 50 nM

Cc1cc(NC(=O)c2c(C)c(C(=O)C(=O)NC(CC(C)C)c3nn[nH]n3)n(C)c2C)ccc1F (stereo not shown) [Example 80, N-(4-fluoro-3-methylphenyl)-1,2,4-trimethyl-5-(2-((3-methyl-1-(2H-tetrazol-5-yl)butyl)amino)-2-oxoacetyl)-1H-pyrrole-3-carboxamide]
CC50 at 7 days [1]: > 30000 nM
EC50 [2]: 50 to 499 nM

Cc1c(C(=O)Nc2cncc(Cl)c2)c(C)n(C)c1C(=O)C(=O)N[C@H]1CC[C@@H](O)CC1 [Example 726, N-(5-chloropyridin-3-yl)-5-(2-(((1s,4s)-4-hydroxycyclohexyl)amino)-2-oxoacetyl)-1,2,4-trimethyl-1H-pyrrole-3-carboxamide]
CC50 at 7 days [1]: > 30000 nM
EC50 [2]: < 50 nM

Cc1cc(NC(=O)c2c(Cl)c(C(=O)C(=O)NCC(C)(C)CO)n3c2CCCC3)cnc1F [Example 525, 2-chloro-N-(6-fluoro-5-methylpyridin-3-yl)-3-(2-((3-hydroxy-2,2-dimethylpropyl)amino)-2-oxoacetyl)-5,6,7,8-tetrahydroindolizine-1-carboxamide]
CC50 at 7 days [1]: > 30000 nM
EC50 [2]: > 1000 nM

Cc1cc(NC(=O)c2c(C)c(C(=O)C(=O)N[C@@H]3c4ccccc4C[C@H]3O)n(C)c2C)ccc1F [Example 261, N-(4-fluoro-3-methylphenyl)-5-(2-(((1R,2R)-2-hydroxy-2,3-dihydro-1H-inden-1-yl)amino)-2-oxoacetyl)-1,2,4-trimethyl-1H-pyrrole-3-carboxamide]
CC50 at 7 days [1]: 500 to 4990 nM
EC50 [2]: < 50 nM

Cc1cc(NC(=O)c2c(C)c(C(=O)C(=O)N3[C@@H]4CC[C@H]3C[C@H](O)C4)n(C)c2C)ccc1F [Example 48, N-(4-fluoro-3-methylphenyl)-5-(2-((1R,3s,5S)-3-hydroxy-8-azabicyclo[3.2.1]octan-8-yl)-2-oxoacetyl)-1,2,4-trimethyl-1H-pyrrole-3-carboxamide]
CC50 at 7 days [1]: > 30000 nM
EC50 [2]: 50 to 499 nM

CC(=O)N1CC[C@H](NC(=O)C(=O)c2c(C)c(C(=O)Nc3ccc(F)c(C)c3)c(C)n2C)C1 [Example 666, (S)-5-(2-((1-acetylpyrrolidin-3-yl)amino)-2-oxoacetyl)-N-(4-fluoro-3-methylphenyl)-1,2,4-trimethyl-1H-pyrrole-3-carboxamide]
CC50 at 7 days [1]: > 30000 nM
EC50 [2]: < 50 nM
